Consider eleven compounds from patent US12492188B2, “1H-benzo[D]imidazole derivatives as TLR9 inhibitors for the treatment of fibrosis” (BRISTOL-MYERS SQUIBB COMPANY, priority 2020, dated 2025).

By IC50 is commonly meant the midpoint of a concentration-inhibition curve.

Where two headings read alike, the source gives them in different places.

Holding throughout (type): cell-based
One assay has as its target T1, human TLR9 (Homo sapiens, UniProt Q9NR96).
T1 construct: host or cells: HEK-Blue cells (HEK293-derived reporter line)
T1 sequence (Q9NR96 26-1032): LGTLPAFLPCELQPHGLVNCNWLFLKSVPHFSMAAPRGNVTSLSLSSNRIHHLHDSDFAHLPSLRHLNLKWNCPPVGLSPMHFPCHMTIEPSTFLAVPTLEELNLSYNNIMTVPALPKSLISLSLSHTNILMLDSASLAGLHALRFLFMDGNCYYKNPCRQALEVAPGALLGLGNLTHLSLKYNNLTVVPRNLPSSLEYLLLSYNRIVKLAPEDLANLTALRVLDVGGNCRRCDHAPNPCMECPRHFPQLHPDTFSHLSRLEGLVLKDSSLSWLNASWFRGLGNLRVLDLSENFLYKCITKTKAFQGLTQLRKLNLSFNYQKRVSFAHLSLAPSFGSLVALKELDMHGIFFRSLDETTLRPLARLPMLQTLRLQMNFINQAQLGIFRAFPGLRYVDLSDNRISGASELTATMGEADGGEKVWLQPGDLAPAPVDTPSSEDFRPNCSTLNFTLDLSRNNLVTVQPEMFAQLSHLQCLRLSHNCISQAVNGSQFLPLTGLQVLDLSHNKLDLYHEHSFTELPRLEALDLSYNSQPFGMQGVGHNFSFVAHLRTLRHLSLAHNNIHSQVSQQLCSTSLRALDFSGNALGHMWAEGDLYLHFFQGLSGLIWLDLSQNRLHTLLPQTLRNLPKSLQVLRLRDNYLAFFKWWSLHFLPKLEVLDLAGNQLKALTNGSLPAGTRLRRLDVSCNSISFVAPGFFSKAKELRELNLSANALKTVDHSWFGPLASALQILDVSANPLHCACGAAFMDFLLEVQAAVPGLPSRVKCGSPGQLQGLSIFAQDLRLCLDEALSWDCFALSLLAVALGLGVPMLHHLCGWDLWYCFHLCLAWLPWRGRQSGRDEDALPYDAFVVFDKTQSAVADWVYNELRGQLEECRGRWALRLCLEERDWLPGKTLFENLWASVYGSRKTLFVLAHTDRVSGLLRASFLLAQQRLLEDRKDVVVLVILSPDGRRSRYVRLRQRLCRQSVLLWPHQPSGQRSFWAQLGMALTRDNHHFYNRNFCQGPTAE
Nature of the assay: TLR9 inhibition reporter assay (HEK-Blue cells, secreted embryonic alkaline phosphatase reporter). The following applies: HEK-Blue cells overexpressing human TLR9, stimulated with ODN2006 5 nM. In a few lines: (§1)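 Read-out is SEAP colour from HEK-Blue Detection medium after 22 h at 37 °C, converted to percent inhibition between agonist-plus-DMSO and reference-inhibitor wells. Receptor-overexpressing HEK-Blue cells received compound over 0.05 nM–50 μM for 30 min before agonist: gardiquimod 7.5 μM for TLR7, R848 15.9 μM for TLR8, ODN2006 5 nM for TLR9.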

The target in another assay is T2, human TLR8 (Homo sapiens, UniProt Q9NR97).
T2 construct: host or cells: HEK-Blue cells (HEK293-derived reporter line)
T2 sequence (Q9NR97 27-1041): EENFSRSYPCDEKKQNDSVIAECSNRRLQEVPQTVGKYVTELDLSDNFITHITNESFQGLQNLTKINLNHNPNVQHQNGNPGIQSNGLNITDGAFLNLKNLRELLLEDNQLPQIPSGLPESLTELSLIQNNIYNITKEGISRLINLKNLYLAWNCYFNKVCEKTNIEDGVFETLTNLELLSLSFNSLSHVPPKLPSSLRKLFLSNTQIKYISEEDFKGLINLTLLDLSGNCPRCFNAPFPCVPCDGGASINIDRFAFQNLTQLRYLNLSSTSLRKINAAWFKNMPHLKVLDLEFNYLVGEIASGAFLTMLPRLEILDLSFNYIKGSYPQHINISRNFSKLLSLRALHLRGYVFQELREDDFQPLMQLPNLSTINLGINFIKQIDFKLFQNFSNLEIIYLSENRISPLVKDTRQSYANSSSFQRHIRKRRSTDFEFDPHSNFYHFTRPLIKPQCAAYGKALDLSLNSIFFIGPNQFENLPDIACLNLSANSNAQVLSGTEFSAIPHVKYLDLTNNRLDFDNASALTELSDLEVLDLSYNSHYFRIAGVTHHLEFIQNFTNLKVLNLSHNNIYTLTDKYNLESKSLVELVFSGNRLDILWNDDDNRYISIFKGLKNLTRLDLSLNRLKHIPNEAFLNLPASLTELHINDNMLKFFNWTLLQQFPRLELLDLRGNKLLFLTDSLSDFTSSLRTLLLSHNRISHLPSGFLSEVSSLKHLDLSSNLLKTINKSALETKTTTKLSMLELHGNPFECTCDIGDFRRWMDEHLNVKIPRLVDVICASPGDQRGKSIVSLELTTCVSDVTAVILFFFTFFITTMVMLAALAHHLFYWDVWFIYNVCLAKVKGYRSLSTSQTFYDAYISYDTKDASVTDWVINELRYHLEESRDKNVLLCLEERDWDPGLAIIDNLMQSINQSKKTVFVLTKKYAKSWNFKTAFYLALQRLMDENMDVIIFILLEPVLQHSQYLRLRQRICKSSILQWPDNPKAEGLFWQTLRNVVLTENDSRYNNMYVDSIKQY
Nature of the assay: TLR8 inhibition reporter assay (HEK-Blue cells, secreted embryonic alkaline phosphatase reporter). The following applies: HEK-Blue cells overexpressing human TLR8, stimulated with R848 15.9 μM; read-out: TLR 8 IC50. In a few lines:
as §1

The target of the next assay is T3, human TLR7 (Homo sapiens, UniProt Q9NYK1).
T3 construct: host or cells: HEK-Blue cells (HEK293-derived reporter line)
T3 sequence (Q9NYK1 27-1049): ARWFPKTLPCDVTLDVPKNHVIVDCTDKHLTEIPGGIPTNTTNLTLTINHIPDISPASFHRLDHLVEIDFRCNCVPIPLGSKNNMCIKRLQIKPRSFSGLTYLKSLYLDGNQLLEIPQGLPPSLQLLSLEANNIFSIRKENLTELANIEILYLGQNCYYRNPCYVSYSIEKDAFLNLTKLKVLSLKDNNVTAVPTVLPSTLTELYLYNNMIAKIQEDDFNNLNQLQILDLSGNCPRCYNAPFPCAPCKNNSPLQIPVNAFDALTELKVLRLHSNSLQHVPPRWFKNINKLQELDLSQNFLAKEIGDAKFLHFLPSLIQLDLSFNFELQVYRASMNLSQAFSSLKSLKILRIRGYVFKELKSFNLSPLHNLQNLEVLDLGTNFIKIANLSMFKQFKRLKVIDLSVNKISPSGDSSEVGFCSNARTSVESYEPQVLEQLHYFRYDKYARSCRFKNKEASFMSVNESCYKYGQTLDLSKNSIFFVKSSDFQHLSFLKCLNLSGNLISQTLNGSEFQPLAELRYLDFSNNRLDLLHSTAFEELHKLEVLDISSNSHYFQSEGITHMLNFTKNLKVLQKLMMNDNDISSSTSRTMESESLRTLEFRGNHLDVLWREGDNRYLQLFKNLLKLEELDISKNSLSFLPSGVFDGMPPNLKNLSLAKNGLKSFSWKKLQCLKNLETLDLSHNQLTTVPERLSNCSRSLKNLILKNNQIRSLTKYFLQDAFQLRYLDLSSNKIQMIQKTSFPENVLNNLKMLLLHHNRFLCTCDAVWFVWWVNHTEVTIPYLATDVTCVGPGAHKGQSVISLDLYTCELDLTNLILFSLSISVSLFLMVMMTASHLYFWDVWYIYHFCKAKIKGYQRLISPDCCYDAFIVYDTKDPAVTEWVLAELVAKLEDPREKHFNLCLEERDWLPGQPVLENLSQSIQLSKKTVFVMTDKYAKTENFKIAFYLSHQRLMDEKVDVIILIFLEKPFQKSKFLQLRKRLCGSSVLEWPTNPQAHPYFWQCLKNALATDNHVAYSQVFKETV
Nature of the assay: TLR7 inhibition reporter assay (HEK-Blue cells, secreted embryonic alkaline phosphatase reporter). The following applies: HEK-Blue cells overexpressing human TLR7, stimulated with gardiquimod 7.5 μM; read-out: TLR 7 IC50. In a few lines: as §1

Setting [1] is: 22 hour incubation, reporter readout.

As for `COc1ccc(-c2nc3cc(C4CCN(C5CCN(CC(C)C)CC5)CC4)ccc3n2CC(F)F)cc1OC` [Example 38, 1-(2,2-difluoroethyl)-2-(3,4-dimethoxyphenyl)-5-(1′-isobutyl-[1,4′-bipiperidin]-4-yl)-1H-benzo[d]imidazole], the half-inhibitory concentration (IC50) against human TLR9 (setting [1]) is 210 nM; at human TLR9 (read-out: TLR 9 IC50), 208 nM; at human TLR8, above 50000 nM; on human TLR7, 3400 nM.
On to `COc1ccc(-c2nc3cc(C4CCN(C5CCN(C6CC6)CC5)CC4)ccc3n2CC(F)F)cc1OC` [Example 39, 5-(1′-cyclopropyl-[1,4′-bipiperidin]-4-yl)-1-(2,2-difluoroethyl)-2-(3,4-dimethoxyphenyl)-1H-benzo[d]imidazole], for which the IC50 at human TLR9 (setting [1]) amounted to 590 nM; on human TLR9 (read-out: TLR 9 IC50), 590 nM; on human TLR8, 30000 nM; on human TLR7, 6400 nM.
As to `CCn1c(-c2ccc(OC)c(OC)c2)nc2ccc(C3CCN(C4CCN(CC(C)C)CC4)CC3)cc21` [Example 40, 2-(3,4-dimethoxyphenyl)-1-ethyl-6-(1′-isobutyl-[1,4′-bipiperidin]-4-yl)-1H-benzo[d]imidazole], the half-inhibitory concentration (IC50) stood at 150 nM at human TLR9 (setting [1]), 149 nM at human TLR9 (read-out: TLR 9 IC50), 46000 nM on human TLR8 and 2300 nM on human TLR7.
In the same order, the values of `CCn1c(-c2ccc(OC)c(OC)c2)nc2cc(C3CCN(C4CCN(CC(C)C)CC4)CC3)ccc21` [Example 41, 2-(3,4-dimethoxyphenyl)-1-ethyl-5-(1′-isobutyl-[1,4′-bipiperidin]-4-yl)-1H-benzo[d]imidazole] are 400 nM, 404 nM, 1600 nM and 3700 nM.
Take `COc1ccc(-c2nc3cc(C4CCN(C5CCN(CC(C)C)CC5)CC4)c(C(F)(F)F)cc3[nH]2)cc1OC` [Example 42, 2-(3,4-dimethoxyphenyl)-5-(1′-isobutyl-[1,4′-bipiperidin]-4-yl)-6-(trifluoromethyl)-1H-benzo[d]imidazole]: the IC50 is 260 nM at human TLR9 (setting [1]), 255 nM on human TLR9 (read-out: TLR 9 IC50), above 50000 nM on human TLR8 and 32000 nM at human TLR7.
In the same order, the values of `COc1ccc(-c2nc3c(C)cc(C4CCN(C5CCN(CC(C)C)CC5)CC4)cc3[nH]2)cc1OC` [Example 43, 2-(3,4-dimethoxyphenyl)-6-(1′-isobutyl-[1,4′-bipiperidin]-4-yl)-4-methyl-1H-benzo[d]imidazole tris(2,2,2-trifluoroacetate)] are 9.8 nM, 9.8 nM, 31000 nM and 650 nM.
As for `COc1ccc(-c2nc3c(C)cc(C4CCN(C5CCN(C6CC6)CC5)CC4)cc3[nH]2)cc1OC` [Example 44, 6-(1′-cyclopropyl-[1,4′-bipiperidin]-4-yl)-2-(3,4-dimethoxyphenyl)-4-methyl-1H-benzo[d]imidazole], the half-inhibitory concentration (IC50) against human TLR9 (setting [1]) worked out at 52 nM; at human TLR9 (read-out: TLR 9 IC50), 52 nM; on human TLR8 it was 5500 nM; on human TLR7, 9100 nM.
Regarding `COc1ccc(-c2nc3c(C)cc(C4CCN(C5CCN(C(C)C)CC5)CC4)cc3n2C)cc1OC` [Example 45, 2-(3,4-dimethoxyphenyl)-6-(1′-isopropyl-[1,4′-bipiperidin]-4-yl)-1,4-dimethyl-1H-benzo[d]imidazole], the IC50 is 20 nM at human TLR9 (setting [1]), 20 nM on human TLR9 (read-out: TLR 9 IC50), above 50000 nM on human TLR8 and 11000 nM on human TLR7.
As for `COc1ccc(-c2nc3c(C)cc(C4CCN(C5CCN(C6CC6)CC5)CC4)cc3n2C)cc1OC` [Example 46, 6-(1′-cyclopropyl-[1,4′-bipiperidin]-4-yl)-2-(3,4-dimethoxyphenyl)-1,4-dimethyl-1H-benzo[d]imidazole tris(2,2,2-trifluoroacetate)], the concentration for half-maximal inhibition (IC50) on human TLR9 (setting [1]) was 170 nM; at human TLR9 (read-out: TLR 9 IC50) it was 610 nM; on human TLR8, above 50000 nM; on human TLR7 it was 18000 nM.
As for `COc1ccc(-c2nc3c(C)cc(C4CCN(C5CC6(C5)CN(CC(C)C)C6)CC4)cc3n2C)cc1OC` [Example 47, 2-(3,4-dimethoxyphenyl)-6-(1-(2-isobutyl-2-azaspiro[3.3]heptan-6-yl)piperidin-4-yl)-1,4-dimethyl-1H-benzo[d]imidazole tris(2,2,2-trifluoroacetate)], the half-inhibitory concentration (IC50) at human TLR9 (setting [1]) was 13 nM; on human TLR9 (read-out: TLR 9 IC50), 13 nM; at human TLR8, above 50000 nM; on human TLR7 it was 7200 nM.
Regarding `COc1ccc(-c2nc3c(C)cc(C4CCN(C5CC6(C5)CN(CC5CC5)C6)CC4)cc3n2C)cc1OC` [Example 48, 6-(1-(2-(cyclopropylmethyl)-2-azaspiro[3.3]heptan-6-yl)piperidin-4-yl)-2-(3,4-dimethoxyphenyl)-1,4-dimethyl-1H-benzo[d]imidazole], the IC50 at human TLR9 (setting [1]) was 19 nM; at human TLR9 (read-out: TLR 9 IC50) it was 19 nM; at human TLR8 it was above 50000 nM; on human TLR7, above 50000 nM.
